What was measured:
Experiment in all cases: relative viability (nuclei count vs DMSO), 5 days (fraction); higher = more cells survive
[1] = compound: CN(C)CC1=CC(=CC=C1)N=C(C2=CC=CC=C2)C3=C(NC4=C3C=CC(=C4)C(=O)N(C)C)O + CS(=O)(=O)N1CCN(Cc2cc3nc(-c4cccc5[nH]ncc45)nc(N4CCOCC4)c3s2)CC1 [Pictilisib] (partner 1 µM)
Outline: (§1)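 For relative viability, nuclei counts in treated wells were divided by those in vehicle wells. Lung cancer cell lines had been pin-tool dosed in 1536-well plates the day after seeding and cultured for 5 days, then fixed and stained in one step (final 0.05% Triton X-100, 1% formaldehyde, 1 ug/ml Hoechst) and imaged at 4×. Doses were one drug alone or a fixed anchor-drug dose plus five library-drug doses (not always all listed) in √10 steps, and values are duplicate-plate medians.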

[2] = compound: CN(C)CC1=CC(=CC=C1)N=C(C2=CC=CC=C2)C3=C(NC4=C3C=CC(=C4)C(=O)N(C)C)O + CC(C)C[C@H](NC(=O)[C@H](Cc1ccccc1)NC(=O)c1cnccn1)B(O)O [Bortezomib] (partner 0.002 µM)
Outline: as §1

[3] = compound: CN(C)CC1=CC(=CC=C1)N=C(C2=CC=CC=C2)C3=C(NC4=C3C=CC(=C4)C(=O)N(C)C)O + O=C(c1cc(Cc2n[nH]c(=O)c3ccccc23)ccc1F)N1CCN(C(=O)C2CC2)CC1 [Olaparib] (partner 8 µM)
Outline: as §1

[4] = compound: CN(C)CC1=CC(=CC=C1)N=C(C2=CC=CC=C2)C3=C(NC4=C3C=CC(=C4)C(=O)N(C)C)O + CC(=O)Nc1cccc(-n2c(=O)n(C3CC3)c(=O)c3c(Nc4ccc(I)cc4F)n(C)c(=O)c(C)c32)c1 [Trametinib] (partner 0.02 µM)
Outline: as §1

Cell Line	relative viability ([1]; first compound 0.08 µM)	relative viability ([1]; first compound 0.253 µM)	relative viability ([1]; first compound 0.8 µM)	relative viability ([1]; first compound 2.53 µM)	relative viability ([1]; first compound 8 µM)	relative viability ([2]; first compound 0.08 µM)	relative viability ([2]; first compound 0.253 µM)	relative viability ([2]; first compound 0.8 µM)	relative viability ([2]; first compound 2.53 µM)	relative viability ([2]; first compound 8 µM)	relative viability ([3]; first compound 0.08 µM)	relative viability ([3]; first compound 0.253 µM)	relative viability ([3]; first compound 0.8 µM)	relative viability ([3]; first compound 2.53 µM)	relative viability ([3]; first compound 8 µM)	relative viability ([4]; first compound 0.08 µM)	relative viability ([4]; first compound 0.253 µM)	relative viability ([4]; first compound 0.8 µM)	relative viability ([4]; first compound 2.53 µM)	relative viability ([4]; first compound 8 µM)
NCI-H838	0.529	0.42	0.469	0.397	0.429	0.792	0.8	0.916	0.757	0.73	0.789	0.901	0.751	0.726	0.665	0.528	0.51	0.494	0.473	0.431
NCI-H1355	0.495	0.507	0.329	0.402	0.341	1.24	1.26	1.11	1.28	1.08	0.771	0.707	0.772	0.752	0.732	0.472	0.407	0.314	0.392	0.51
NCI-H1437	0.465	0.49	0.489	0.453	0.44	0.462	0.63	0.615	0.482	0.56	0.621	0.659	0.634	0.622	0.635	0.574	0.53	0.475	0.572	0.656
NCI-H1650	0.591	0.622	0.531	0.625	0.54	0.181	0.22	0.231	0.202	0.222	0.821	0.787	0.753	0.937	0.75	0.69	0.569	0.63	0.604	0.601
NCI-H1651	0.685	0.647	0.636	0.474	0.608	0.959	0.984	0.957	0.794	0.932	0.19	0.203	0.195	0.188	0.181	0.857	0.819	0.863	0.851	0.788
NCI-H1666	0.507	0.528	0.4	0.486	0.545	0.865	0.945	0.989	0.976	0.816	0.763	0.761	0.785	0.754	0.797	0.966	0.879	0.73	0.85	0.928
NCI-H1734	0.479	0.461	0.408	0.402	0.471	0.954	0.868	0.92	0.815	0.78	0.547	0.611	0.672	0.633	0.515	0.625	0.701	0.735	0.698	0.579
NCI-H1755	0.46	0.433	0.349	0.418	0.381	0.888	0.932	0.93	0.817	0.972	0.835	0.898	0.923	0.825	0.794	0.844	0.709	0.708	0.779	0.736

From the supplement of paper PMC10307832
